Experiments:
[1] = type: in vitro ADME; settings: Sprague-Dawley, rat, 1 % (wt %)
Method: The permeation test was carried out using in vitro Franz diffusion cell with a diffusion area of 0.785 cm^2. A piece of rat (Sprague-Dawley) skin tissue was mounted between the two half-cells and fastened with a clamp. Aliquots of 1% (wt %) vardenafil with or without the addition of the enhancer of this disclosure, such as 0.3% (wt %) cocamidopropyl betaine, 1% (wt %) sodium lauroamphoacetate, 1% (wt %) isostearamidopropyl morpholine lactate, 1% (wt %) quaternium-60 or dipropyl glycol, were applied to the Donor compartment to start the experiment. The receiver compartment was filled with PBS and the temperature was held at 37° C. Samples were taken at certain time intervals and assayed by HPLC.

[2] = In vivo skin permeation analysis (applied to rabbit ear, vardenafil in blood); settings: gel formulations (about 0.5 ml, blood drawn after 1 hour) or skin patch (6 hours) with enhancer(s) applied to left ear of rabbit, blood from right ear artery; FIG. 2
Method: In vivo skin permeation tests were carried out using the gel formulations of example 2.1 and the skin patch of example 2.2. Briefly, small aliquots (about 0.5 ml) of gel formulations #1 to 4 or a small piece of the skin patch (3 cm×5 cm×0.15 cm) was applied to the left ear of a rabbit, after certain period of time, 1 ml of blood was drawn from the rabbit's right ear artery and analyzed for the amount of vardenafil. Specifically, the blood was drawn after 1 hour when gel formulation was used; and 6 hours when skin patch was applied. Results are illustrated in FIG. 2.

increase of the amount of vardenafil in the receiving side of Franz Diffusion chamber as compared with control [1]: 0.5-2 folds
increase of the amount of vardenafil found in the blood stream as compared with control [2]: 4 to 5 folds
SMILES: CCCc1nc(C)c2c(=O)[nH]c(-c3cc(S(=O)(=O)N4CCN(CC)CC4)ccc3OCC)nn12 [vardenafil]
